Assay results reported in ChEMBL document CHEMBL5244242, “1,4-Benzodioxane, an evergreen, versatile scaffold in medicinal chemistry: A review of its recent applications in drug design” (Eur J Med Chem, 2020).

Legend:
HeLa = experiment: Anticancer activity against human HeLa cells assessed as cell growth inhibition incubated for 24 hrs by MTT assay; assay type: functional, cell-based
U-251 = experiment: Anticancer activity against human U-251 cells assessed as cell growth inhibition incubated for 24 hrs by MTT assay; assay type: functional, cell-based; details: U-251, 24 h
[1] = target: T1, Tyrosine-protein kinase JAK3 (Homo sapiens, UniProt P52333); experiment: Inhibition of JAK3 (unknown origin) incubated for 20 mins
T1 sequence (P52333 whole entry): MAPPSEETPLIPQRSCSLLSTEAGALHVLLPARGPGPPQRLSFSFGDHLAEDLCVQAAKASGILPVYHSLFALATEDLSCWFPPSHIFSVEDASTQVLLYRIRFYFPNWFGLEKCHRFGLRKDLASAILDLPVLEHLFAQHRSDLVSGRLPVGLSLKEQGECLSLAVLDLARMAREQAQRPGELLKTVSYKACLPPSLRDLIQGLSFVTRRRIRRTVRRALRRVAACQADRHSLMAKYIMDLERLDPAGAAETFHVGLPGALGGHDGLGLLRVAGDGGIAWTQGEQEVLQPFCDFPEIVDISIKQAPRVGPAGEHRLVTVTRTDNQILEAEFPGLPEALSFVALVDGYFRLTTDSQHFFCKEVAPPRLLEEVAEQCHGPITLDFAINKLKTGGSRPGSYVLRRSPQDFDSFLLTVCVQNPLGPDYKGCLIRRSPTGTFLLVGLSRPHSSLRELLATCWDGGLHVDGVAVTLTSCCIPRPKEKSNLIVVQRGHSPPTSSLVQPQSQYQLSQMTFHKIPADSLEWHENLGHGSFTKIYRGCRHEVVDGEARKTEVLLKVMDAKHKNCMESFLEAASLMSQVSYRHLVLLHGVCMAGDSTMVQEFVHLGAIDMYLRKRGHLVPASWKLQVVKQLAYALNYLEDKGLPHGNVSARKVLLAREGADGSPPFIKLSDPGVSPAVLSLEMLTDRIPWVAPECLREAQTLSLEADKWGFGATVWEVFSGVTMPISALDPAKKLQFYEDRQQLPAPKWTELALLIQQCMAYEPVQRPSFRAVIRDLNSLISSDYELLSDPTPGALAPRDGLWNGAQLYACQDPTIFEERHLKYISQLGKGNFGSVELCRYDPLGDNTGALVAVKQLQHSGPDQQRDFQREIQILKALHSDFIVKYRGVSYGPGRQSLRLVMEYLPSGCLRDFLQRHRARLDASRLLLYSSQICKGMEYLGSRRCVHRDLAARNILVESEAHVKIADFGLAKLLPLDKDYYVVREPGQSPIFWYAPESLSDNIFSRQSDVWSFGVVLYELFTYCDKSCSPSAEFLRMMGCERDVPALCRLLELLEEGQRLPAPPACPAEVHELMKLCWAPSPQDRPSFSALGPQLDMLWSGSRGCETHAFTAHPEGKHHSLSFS

A549 = experiment: Anticancer activity against human A549 cells assessed as cell growth inhibition incubated for 24 hrs by MTT assay; assay type: functional, cell-based; details: A549, 24 h
HepG2 = experiment: Anticancer activity against human HepG2 cells assessed as cell growth inhibition incubated for 24 hrs by MTT assay; assay type: functional, cell-based; details: HepG2, 24 h
[2] = target: T2, Prostaglandin G/H synthase 2 (Homo sapiens, UniProt P35354); experiment: Inhibition of COX2 (unknown origin)
T2 sequence (P35354 whole entry): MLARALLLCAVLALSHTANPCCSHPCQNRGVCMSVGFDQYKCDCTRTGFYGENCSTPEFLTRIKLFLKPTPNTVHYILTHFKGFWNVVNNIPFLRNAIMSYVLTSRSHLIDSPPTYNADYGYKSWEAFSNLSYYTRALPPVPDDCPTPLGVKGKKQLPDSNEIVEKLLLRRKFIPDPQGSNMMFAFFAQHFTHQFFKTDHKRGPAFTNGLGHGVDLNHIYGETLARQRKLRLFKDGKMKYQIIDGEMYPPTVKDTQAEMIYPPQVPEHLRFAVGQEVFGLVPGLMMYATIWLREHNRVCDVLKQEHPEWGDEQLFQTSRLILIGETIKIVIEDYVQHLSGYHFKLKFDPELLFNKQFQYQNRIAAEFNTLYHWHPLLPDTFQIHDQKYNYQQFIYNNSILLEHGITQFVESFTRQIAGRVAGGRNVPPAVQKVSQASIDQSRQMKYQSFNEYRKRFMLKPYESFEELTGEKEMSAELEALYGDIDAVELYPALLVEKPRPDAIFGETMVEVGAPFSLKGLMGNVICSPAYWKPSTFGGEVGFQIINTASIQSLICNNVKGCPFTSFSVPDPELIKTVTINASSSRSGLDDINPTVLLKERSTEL

[3] = target: Prostaglandin G/H synthase 1 (Homo sapiens, UniProt P23219); experiment: Inhibition of COX1 (unknown origin)
Escherichia coli = experiment: Antibacterial activity against Escherichia coli FabH assessed as bacterial growth inhibition incubated for 24 hrs by MTT based ELISA analysis; assay type: functional, organism-based
Bacillus subtilis = experiment: Antibacterial activity against Bacillus subtilis assessed as bacterial growth inhibition incubated for 24 hrs by MTT based ELISA analysis; assay type: functional
Staphylococcus aureus = experiment: Antibacterial activity against Staphylococcus aureus assessed as bacterial growth inhibition incubated for 24 hrs by MTT based ELISA analysis; assay type: functional

Prostaglandin G/H synthase 1, sequence (P23219 whole entry): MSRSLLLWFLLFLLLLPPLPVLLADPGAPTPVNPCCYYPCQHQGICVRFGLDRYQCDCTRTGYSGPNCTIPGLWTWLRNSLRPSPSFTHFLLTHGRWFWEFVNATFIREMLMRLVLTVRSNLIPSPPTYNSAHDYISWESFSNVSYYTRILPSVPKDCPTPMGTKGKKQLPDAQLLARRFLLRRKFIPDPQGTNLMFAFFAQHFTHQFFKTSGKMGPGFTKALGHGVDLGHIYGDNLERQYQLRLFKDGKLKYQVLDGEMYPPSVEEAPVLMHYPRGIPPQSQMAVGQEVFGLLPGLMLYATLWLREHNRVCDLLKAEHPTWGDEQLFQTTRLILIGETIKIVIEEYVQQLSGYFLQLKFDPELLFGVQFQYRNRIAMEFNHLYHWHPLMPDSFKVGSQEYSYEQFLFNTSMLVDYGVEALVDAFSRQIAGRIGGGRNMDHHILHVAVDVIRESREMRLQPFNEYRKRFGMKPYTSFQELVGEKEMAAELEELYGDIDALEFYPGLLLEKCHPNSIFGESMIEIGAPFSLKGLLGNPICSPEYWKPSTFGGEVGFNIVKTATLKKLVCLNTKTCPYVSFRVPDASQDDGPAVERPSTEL

Question: What does the source list for `O=C(OCCn1c([N+](=O)[O-])cnc1/C=C/c1ccc(Cl)cc1Cl)c1ccc2c(c1)OCCO2`?
Answer: IC50 (HeLa): 0.021 µM; IC50 (U-251): 0.044 µM; IC50 [1]: 0.009 µM; IC50 (A549): 0.065 µM; IC50 (HepG2): 0.016 µM

Question: Which results are given for `COc1cc(C2Oc3cc(C=Cc4cc(O)cc(O)c4)ccc3OC2CO)cc(OC)c1O` (stereo not drawn)?
Answer: IC50 [2]: 9.9 µM; IC50 [3]: 1.9 µM

Question: What does the source list for `O=C(N/N=C/C=C/c1ccccc1[N+](=O)[O-])c1cccc2c1OCCO2`?
Answer: IC50 (Escherichia coli): 3.5 µM; MIC (Bacillus subtilis): 6 µg/mL; MIC (Staphylococcus aureus): 1.5 µg/mL

Question: For `O=C(CN1CCN(c2ccccn2)CC1)N1C(=O)S/C(=C\c2ccc3c(c2)OCCO3)C1=O`, which IC50 (Escherichia coli) is on record?
Answer: The IC50 was 0.06 µM.

Question: What about the MIC (Bacillus subtilis) of the same compound?
Answer: The MIC was 1.5 µM.

Question: What about the MIC (Staphylococcus aureus) of the same compound?
Answer: The MIC was 1.5 µM.
